One compound from patent US7763626B2, “Compositions and method for enhancing the therapeutic activity of opiods in treatment of pain” (Trustees of Dartmouth College, priority 2004, dated 2010) can be followed below.

What all share (type): in vivo, rat
For assay [1], the system named is GFAP mRNA. The experiment in a line: Real-time PCR of GFAP mRNA at L5 lumbar spinal cord. The procedure: (§1) Total RNA was treated with DNase I (Ambion, Austin, Tex.) to remove DNA contamination before cDNA synthesis. The reverse transcription (RT) was carried out in a 100 μl total reaction volume containing RT buffer, dNTPs, multiscribe reverse transcriptase, RNase-free water and 10 μg of DNase-treated total RNA. The RT reaction was carried out at 25° C. for 10 minutes, 37° C. for 120 minutes, and 95° C. for 5 minutes. Real-time PCR analysis was performed using gene-specific primers and probes that were designed and blasted against GENBANK to confirm their species and gene specificity. […] The real-time PCR reactions were carried out using Platinum Taq DNA polymerase, 20 mM Tris HCl (pH 8.4), 50 mM KCl, 3 mM MgCl2, 200 μM dGTP, dCTP, and dATP, 400 μM of dUTP and 1 U uracyl DNA glycosylase (UDG), 900 nM forward and reverse primers, 300 nM TaqMan probe, and 10-fold dilution of cDNA (50 ng) from the RT step. Primers and probes for glyceraldehyde-3-phosphate (GADPH), GFAP and Mac-1 were obtained form Applied Biosystems (LaJolla, Calif.). The relative standard curves generated by plotting the threshold value versus the log of the amount of total cDNA added to the reaction (1-10000 pg) were used to compare the relative amount of target genes from control and chronic morphine-treated animals.

In assay [2] the test system is GLT-1 mRNA. Description: Real time RT-PCR of ipsilateral lumbar spinal cord after L5 spinal nerve transection. The following applies: daily intrathecal propentofylline 10 μg. The procedure:
(§2) Experiments were performed to determine how propentofylline-induced suppression of glial activation contribute to reduced behavioral hypersensitivity after nerve injury. In a preventative paradigm, 10 μg of propentofylline (Sigma) to male Sprague-Dawley rats in 40 μl of sterile saline, or saline vehicle alone was administered intrathecally (i.t.) by lumbar puncture at the L4/5 level under brief halothane anesthesia (n=6-8/group). Treatment began one hour prior to L5 spinal nerve transection and continued daily in the evening until day 4 or 12 post-transection. Rats received either an L5 spinal nerve transection or sham surgery on day 0. The development of mechanical allodynia was monitored as described above in the morning at approximately 15 hours post-propentofylline or saline injection. Rats were euthanized on day 4 or 12 post-transection and tissue was further processed by real time RT-PCR, Western blot, or immunohistochemistry for determination of levels and rate of synthesis of the glutamate transporters GLT-1 and GLAST.
(§3) Tissue was collected from 4-5 rats/group on postoperative days 4 or 12. In order to obtain both mRNA and protein from the same tissue sample, the L5 region of the spinal cord (ipsilateral to the injury), was isolated and placed in PBS supplemented with protease inhibitor cocktail (1:1000, Sigma, St. Louis, Mo.) and RNase inhibitor (0.75 U/μL Ambion, Austin, Tex.). […]
(§4) Real time RT-PCR reactions were carried out in a total reaction volume of 25 uL containing a final concentration of 1.5 U Platinum Taq DNA polymerase (Invitrogen); 20 mM Tris HCl (pH 8.4); 50 mM KCl; 3 mM MgCl2; 200 uM dGTP, dCTP, and dATP; 400 uM dUTP and 1 U of UDG (uracyl DNA glycosylase); 900 nM of forward and reverse primers; 300 nM Taqman probe; and 5 uL of a 10-fold dilution of cDNA (50 ng) from the RT step. […] The iCycler Multicolor Real-Time PCR detection system (Bio-Rad) was used to quantify PCR product. The fluorescence and threshold values obtained were used to compare the relative amount of target mRNA in experimental groups to those of controls (Livak and Schmittgen 2001). […]

For assay [3], the system named is GLAST mRNA. Described as above. The following applies: day 4; compared to L5 spinal nerve transection alone; did not attain statistical significance. As for the experimental part: as §2, §3, §4
For assay [4], the system named is Mac-1 mRNA. The experiment in a line: Real-time PCR of Mac-1 mRNA at L5 lumbar spinal cord. As for the experimental part: as §1
Assay [5] concerns IL-1β mRNA. Description: RNase protection assay, cytokine mRNA at L5 lumbar spinal cord. The following applies: propentofylline 10 micrograms intrathecally for 5 days during induction of morphine tolerance.
Procedure: After behavioral testing for reactions to the combined treatment, rats were sacrificed and decapitated. An 18-gauge needle was inserted into the caudal end of the vertebral column and the spinal cord was expelled with ice-cold phosphate-buffered saline. The spinal cord was frozen immediately on dry ice and stored at −80° C. until homogenization. The L5 lumbar spinal cord was isolated from the intact frozen cord at the time of mRNA and protein quantification. Total RNA was isolated from the L5 spinal cord by the TRIzol extraction method (Invitrogen Corporation, Carlsbad, Calif).
Assessment of the temporal cytokine mRNA expression in the L5 lumber spinal cord was performed using a Ribonuclease Protection Assay technique. A Multiprobe RPAse kit was used (Pharmingen, San Diego, Calif.). Total RNA (15 μg) was hybridized to ^32P-labeled antisense RNA probes transcribed using the rat cytokine-1 (rCK-1) multiprobe template set resulting in double-stranded target RNA. After Rnase digestion, protected RNA and probe were resolved on a denaturing polyacrylamide gel and visualized by overnight autoradiography. Quantitative image analysis was employed to compare mRNA levels based on band intensities for each cytokine. The intensity of each band was measured using image analysis software and assigned an arbitrary unit based on the measured intensity levels. The value for the normalized quantity for each band was obtained by dividing by the L32 house-keeping gene control. Individual mRNA concentration was calculated as the ratio of the expression compared with saline-treated animals in which normal values were weighted as 1.
Setting [6] is: compared to saline-treated controls, morphine 10 mg/kg twice daily 5 days, or propentofylline 10 micrograms intrathecally 5 days in saline-treated rats.
Where [7] appears, read: propentofylline during the induction phase of morphine tolerance.

Structures are written as SMILES.

For `CCCn1cnc2c1c(=O)n(CCCCC(C)=O)c(=O)n2C` [propentofylline], the “GFAP mRNA levels at the L5 lumbar spinal cord” value in assay [1] (setting [6]) is on record as “no effect”. In addition, the “chronic morphine-induced upregulation of GFAP” value in assay [1] (setting [7]) is “significantly attenuated”. Besides, the “GLT-1 mRNA level” value in assay [2] (day 4 post-transection, vs sham-operated and L5 nerve transected rats) is “significantly increased”; in assay [2] (day 12 post-transection, vs L5 nerve transected rats), “significantly increased”. Further, the “GLAST mRNA level” value in assay [3] is recorded as “slight decrease”. The “Mac-1 mRNA levels at the L5 lumbar spinal cord” value in assay [4] (setting [6]) is “no effect”. In addition, in assay [4] (setting [7]), the “chronic morphine-induced upregulation of Mac-1” value was “significantly attenuated”. In addition, the “morphine-induced mRNA upregulation for IL-1β” value in assay [5] is “significantly attenuated”.
